Data: PubChem BioAssay (NCI)
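GI50 marks 50% less growth. TGI: concentration producing complete growth inhibition.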

Key:
Assay in all cases: growth of human tumour cells (NCI), 384-well format
[1] = test system: 786-0 renal
[2] = test system: A498 renal
[3] = test system: A549 NSCLC
[4] = test system: ACHN renal
[5] = test system: BT-549 breast
[6] = test system: CAKI-1 renal
[7] = test system: CCRF-CEM leukemia
[8] = test system: DU-145 prostate
[9] = test system: EKVX NSCLC
[10] = test system: HCC-2998 colon
[11] = test system: HCT-116 colon
[12] = test system: HCT-15 colon
[13] = test system: HL-60(TB) leukemia
[14] = test system: HOP-62 NSCLC
[15] = test system: IGROV1 ovarian
[16] = test system: KM12 colon
[17] = test system: LOX IMVI melanoma
[18] = test system: M14 melanoma
[19] = test system: MALME-3M melanoma
[20] = test system: MCF7 breast
[21] = test system: MDA-MB-231 breast
[22] = test system: MDA-MB-468 breast
[23] = test system: NCI-H226 lung
[24] = test system: NCI-H23 lung
[25] = test system: NCI-H322M lung
[26] = test system: NCI-H460 NSCLC
[27] = test system: NCI-H522 lung
[28] = test system: NCI/ADR-RES ovarian
[29] = test system: OVCAR-3 ovarian
[30] = test system: OVCAR-4 ovarian
[31] = test system: OVCAR-5 ovarian
[32] = test system: PC-3 prostate
[33] = test system: RPMI-8226 leukemia
[34] = test system: SF-295 CNS
[35] = test system: SF-539 CNS
[36] = test system: SK-MEL-5 melanoma
[37] = test system: SK-OV-3 ovarian
[38] = test system: SN12C renal
[39] = test system: SNB-19 CNS
[40] = test system: SNB-75 CNS
[41] = test system: SR leukemia
[42] = test system: SW-620 colon
[43] = test system: TK-10 renal
[44] = test system: U251 glioblastoma
[45] = test system: UACC-257 melanoma
[46] = test system: UACC-62 melanoma
[47] = test system: UO-31 renal

## CCS(=O)(=O)N1CCC(C(C)n2c(C)c(C(=O)NCc3c(OC)cc(C)[nH]c3=O)c3ccccc32)CC1 (centres undefined)
[1]
  GI50: > 100 µM
  TGI: > 100 µM
[2]
  GI50: > 100 µM
  TGI: > 100 µM
[3]
  GI50: > 100 µM
  TGI: > 100 µM
[4]
  GI50: > 100 µM
  TGI: > 100 µM
[5]
  GI50: > 100 µM
  TGI: > 100 µM
[6]
  GI50: > 100 µM
  TGI: > 100 µM
[7]
  GI50: > 100 µM
  TGI: > 100 µM
[8]
  GI50: > 100 µM
  TGI: > 100 µM
[9]
  GI50: > 100 µM
  TGI: > 100 µM
[10]
  GI50: > 100 µM
  TGI: > 100 µM
[11]
  GI50: > 100 µM
  TGI: > 100 µM
[12]
  GI50: > 100 µM
  TGI: > 100 µM
[13]
  GI50: > 100 µM
  TGI: > 100 µM
[14]
  GI50: > 87.9 µM
  TGI: > 100 µM
[15]
  GI50: > 100 µM
  TGI: > 100 µM
[16]
  GI50: > 100 µM
  TGI: > 100 µM
[17]
  GI50: > 78.6 µM
  TGI: > 100 µM
[18]
  GI50: > 100 µM
  TGI: > 100 µM
[19]
  GI50: > 100 µM
  TGI: > 100 µM
[20]
  GI50: > 78.3 µM
  TGI: > 100 µM
[21]
  GI50: > 100 µM
  TGI: > 100 µM
[22]
  GI50: 40 µM
  TGI: > 100 µM
[23]
  GI50: > 100 µM
  TGI: > 100 µM
[24]
  GI50: > 100 µM
  TGI: > 100 µM
[25]
  GI50: > 100 µM
  TGI: > 100 µM
[26]
  GI50: > 100 µM
  TGI: > 100 µM
[27]
  GI50: > 100 µM
  TGI: > 100 µM
[28]
  GI50: > 100 µM
  TGI: > 100 µM
[29]
  GI50: > 100 µM
  TGI: > 100 µM
[30]
  GI50: > 100 µM
  TGI: > 100 µM
[31]
  GI50: > 100 µM
  TGI: > 100 µM
[32]
  GI50: > 100 µM
  TGI: > 100 µM
[33]
  GI50: 7.49 µM
  TGI: > 86.4 µM
[34]
  GI50: > 100 µM
  TGI: > 100 µM
[35]
  GI50: > 100 µM
  TGI: > 100 µM
[36]
  GI50: > 100 µM
  TGI: > 100 µM
[37]
  GI50: > 100 µM
  TGI: > 100 µM
[38]
  GI50: > 100 µM
  TGI: > 100 µM
[39]
  GI50: > 100 µM
  TGI: > 100 µM
[40]
  GI50: > 100 µM
  TGI: > 100 µM
[41]
  GI50: > 100 µM
  TGI: > 100 µM
[42]
  GI50: > 100 µM
  TGI: > 100 µM
[43]
  GI50: > 100 µM
  TGI: > 100 µM
[44]
  GI50: > 100 µM
  TGI: > 100 µM
[45]
  GI50: > 100 µM
  TGI: > 100 µM
[46]
  GI50: > 100 µM
  TGI: > 100 µM
[47]
  GI50: > 100 µM
  TGI: > 100 µM
